“Also recorded” adds a separate entry of the source.
Experiments:
Type in all cases: cell-based
KRAS sumoylation = KRAS sumoylation in transfected MiaPaCa-2 cells (Flag immunoprecipitation, HA blot); conditions: MiaPaCa-2 cells transfected with Flag-KRAS and HA-SUMO3, treated 18 h (FIG. 2A)
Protocol: FIGS. 2A-2E. Lysine 42 is a primary site for sumoylation. (FIG. 2A) MiaPaCa-2 cells were transfected with Flag-KRAS and HA-SUMO3 expression constructs for 24 h and then treated with or without 2-D08 for 18 h. Cells were then lysed and equal amounts of the lysates were immunoprecipitated with the anti-Flag antibody. Flag precipitates, along with lysate inputs, were blotted with antibodies to HA and Flag, respectively. (FIG. 2B) HEK293T cells were co-transfected with plasmid constructs expressing Flag-KRAS, HA-SUMO3, and SENP isoforms as indicated. Equal amounts of protein lysates were immunoprecipitated with the anti-Flag antibody. Flag immunoprecipitates were immunoblotted with antibodies to Flag or HA. […]
Total cell lysates were prepared in a buffer [50 mM Tris-HCl (pH 7.5), 150 mM NaCl, 1% IGEPAL, 0.1% SDS, and 0.5% sodium deoxycholate] supplemented with a mixture of protease and phosphatase inhibitors. […] Protein concentrations were measured using the bicinchoninic acid protein assay reagent kit (Pierce Chemical Co). […]
HEK-293T cells were lysed in TBSN buffer [20 mM Tris-Cl (pH 8.0), 150 mM NaCl, 0.5% NP-40, 5 mM EGTA, 1.5 mM EDTA, 0.5 mM Na3VO4, and […]-Glycerol phosphate]. […] After incubation, proteins bound to each resin were washed extensively with the binding buffer, eluted in the SDS-PAGE sample buffer, and analyzed by SDSPAGE.

MiaPaCa-2 cells = assay: Wound-healing assay, MiaPaCa-2 cells; conditions: MiaPaCa-2 cells (KRASV12), various concentrations, 18 h (FIG. 7B, 7D)
Protocol: (§1) FIGS. 7A-7E. SUMO inhibitor blocks migration of pancreatic cancer cells with KRASV12 mutation. (FIG. 7A) MiaPaCa-2 cells transfected with various KRAS expression constructs or the vector as indicated for 24 h. A GFP-expressing plasmid was used for co-transfection. Transfected cells were then used for wound-healing assays as described in Methods. Representative images of the assay and GFP expression are shown. (FIG. 7B) Both BxPC-3 and MiaPaCa-2 cells were employed for wound-healing assays. Cells with open scratches were treated with various concentrations of 2-D08 for 18 h. Representative images of cells before and after recovery in the presence of 2-D08 for 18 h are shown. (FIG. 7C & FIG. 7D) Data were summarized from experiments as shown in A and B, respectively. (FIG. 7E) MiaPaCa-2 cells treated with or without 2-D08 were lysed and equal amounts of cell lysates were blotted with antibodies to N-Cadherin, ZEB1/TCF8, ZO-1, PARP-1 and B-actin, respectively.
(§2) RAS proteins were the first, and remain the best-studied, oncoproteins. However, to date no compounds that target RAS have been approved for clinic applications for cancer treatment. As a proof-of-principle study, we next determined whether 2-D08 that blocks RAS sumoylation (FIG. 2A) would suppress tumor cell migration in a KRAS-dependent manner. […]

BxPC-3 cells = assay: Wound-healing assay, BxPC-3 cells; conditions: BxPC-3 cells that harbor no KRAS mutation, various concentrations, 18 h (FIG. 7B, 7D)
Protocol: as §1, §2

[1] = test system: ZEB1/TCF8, ZO-1 expression in MiaPaCa-2 cells; assay: Immunoblot of migration/EMT gene products in MiaPaCa-2 cells
Protocol: as §1
RAS proteins were the first, and remain the best-studied, oncoproteins. However, to date no compounds that target RAS have been approved for clinic applications for cancer treatment. As a proof-of-principle study, we next determined whether 2-D08 that blocks RAS sumoylation (FIG. 2A) would suppress tumor cell migration in a KRAS-dependent manner.
Total cell lysates were prepared in a buffer [50 mM Tris-HCl (pH 7.5), 150 mM NaCl, 1% IGEPAL, 0.1% SDS, and 0.5% sodium deoxycholate] supplemented with a mixture of protease and phosphatase inhibitors. HEK293T Tet-on cells were engineered to express KRASV12 or KRASV12/42R mutants in the presence of doxycycline. At various times post addition of doxycycline, cells were collected and lysed in the same buffer as above. Protein concentrations were measured using the bicinchoninic acid protein assay reagent kit (Pierce Chemical Co). Equal amounts of protein lysates from various samples were used for SDS-PAGE analysis followed by immunoblotting. […]

[2] = MiaPaCa-2 cells, immunoblot (FIG. 7E)

O=c1cc(-c2ccc(O)c(O)c2O)oc2ccccc12 [2-D08, 2-(2,3,4-Trihydroxyphenyl)-4H-chromen-4-one]
KRAS sumoylation (KRAS sumoylation): blocked KRAS sumoylation in a concentration-dependent manner | cell migration (wound healing) (MiaPaCa-2 cells): blocked MiaPaCa-2 cell migration in a concentration-dependent manner; also recorded: reduces migration rate of pancreatic cancer cells with KRASV12 in a concentration-dependent manner | cell migration (wound healing) (BxPC-3 cells): did not have an effect on inhibiting cell migration | expression of ZEB1/TCF8 [1, 2]: suppressed expression of ZEB1/TCF8 | expression of ZO-1 [1, 2]: promoted expression of ZO-1 | expression of genes involved in EMT ([1]; pancreatic cancer cells with KRASV12 (FIG. 7)): suppresses expression of genes involved in EMT
